Assay results reported in article PMC10771296, “Plectasin: from evolution to truncation, expression, and better druggability” (Frontiers in Microbiology, 2023).
≈ marks a conversion by molar mass, not a printed value. Like-named read-outs stand apart in the source and are kept apart here. Marks after values point to notes of the source that are not given here.

Key:
E. coli O157 = conditions: ref Yang et al., 2019; cited from earlier work
Text: (§1) Table 3 The MIC values of Ple-AB. | column: MIC (μg/mL) / Plectasin

P. aeruginsoa CICC21630 = conditions: ref Yang et al., 2019; cited from earlier work
Text: as §1

S. aureus ATCC43300 [1] = conditions: ref Yang et al., 2019; cited from earlier work
Text: as §1

S. aureus CVCC546 = conditions: ref Yang et al., 2019; cited from earlier work
Text: as §1

S. aureus E48 = conditions: ref Yang et al., 2019; cited from earlier work
Text: as §1

mouse erythrocytes = conditions: 256 μg/mL; ref Zhang et al., 2011; Yang et al., 2019; cited from earlier work
Text: The length, positive charge number, and amphiphilicity of the derived peptide Ple-AB were altered, reducing the peptide chain length from 40 to 36 amino acids, reducing the molecular weight from 4407.99 to 4006.66 Da, increasing the charge number from +1 to +3, and increasing the hydrophobicity from −0.695 to −0.469 (Table 1).

S. aureus ATCC43300 [2] = conditions: ref Lei et al., 2018; cited from earlier work
Text: Clinical applications require drugs that exhibi ...

S. aureus ATCC43300 [3] = test: MIC/MBC, micro broth dilution; assay type: cell-based, Staphylococcus aureus; conditions: Staphylococcus aureus, ATCC43300; micro broth dilution, 1 × 10^5 CFU/mL, repeated thrice; read-out: MIC
Procedure: The minimum inhibitory concentration (MIC) of the peptides was assayed using the micro broth dilution method, which is an important indicator of the antibacterial activity of the AMPs ([Liu et al., 2021]). […] The MIC was defined as the lowest concentration of ones at which no visible bacterial growth was observed. All the assays were repeated thrice.

S. aureus ATCC43300 [4] = test: Time-kill curve (bacterial kinetics in vitro); assay type: cell-based, Staphylococcus aureus; conditions: 2× MIC, 1 × 10^5 CFU/mL, 37°C, 250 rpm, colony counting
Procedure: The bactericidal efficiency of Ple-AB was evaluated by plotting a time-kill curve ([Zheng et al., 2021]). Single colonies of the S. aureus ATCC43300 were picked for overnight activation, and 1% were transferred and incubated at 37°C until the logarithmic growth phase. […] Samples of 100 uL of bacteria were taken at 0, 0.5, 1, 2, 4, 6, 8, 10, 12, and 24 h, diluted, and coated to count the number of single colonies and plot the time-killing curve.

CC[C@H](C)[C@@H]1NC(=O)[C@H](CO)NC(=O)[C@H](CCCCN)NC(=O)[C@@H]2CSSC[C@@H](C(=O)N[C@@H](Cc3ccc(O)cc3)C(=O)O)NC(=O)[C@H](CCCCN)NC(=O)[C@@H]3CSSC[C@H](NC(=O)[C@H](CCC(N)=O)NC(=O)[C@H](CCSC)NC(=O)[C@H](CC(=O)O)NC(=O)[C@H](CC(=O)O)NC(=O)[C@H](CCC(=O)O)NC(=O)[C@H](CC(=O)O)NC(=O)[C@H](Cc4c[nH]c5ccccc45)NC(=O)[C@@H]4CCCN4C(=O)CNC(=O)[C@H](CC(N)=O)NC(=O)[C@@H](NC(=O)CNC(=O)[C@H](Cc4ccccc4)NC(=O)CN)CSSC[C@H](NC(=O)[C@H](Cc4ccc(O)cc4)NC(=O)CNC(=O)CNC(=O)[C@H](CCCCN)NC(=O)[C@H](Cc4ccc(O)cc4)NC(=O)CNC(=O)[C@H](CCCCN)NC1=O)C(=O)N[C@@H](C)C(=O)N[C@@H](CCCCN)C(=O)NCC(=O)NCC(=O)N[C@@H](Cc1ccccc1)C(=O)N[C@@H](C(C)C)C(=O)N3)C(=O)N[C@@H](Cc1c[nH]cn1)C(=O)N[C@@H](CC(N)=O)C(=O)N[C@@H](Cc1c[nH]cn1)C(=O)N2 [Plectasin]
MIC (E. coli O157): >128 ^a μg/mL
MIC (P. aeruginsoa CICC21630): >128 ^a μg/mL
MIC (S. aureus ATCC43300 [1]): 4^a μg/mL
MIC (S. aureus CVCC546): 16^a μg/mL
MIC (S. aureus E48): 4^a μg/mL
Hemolytic activity (mouse erythrocytes): 68%
Time of co-incubation with simulated intestinal fluid after which activity is lost (S. aureus ATCC43300 [2]): 15 to 30 min

CN[C@H](CC(C)C)C(=O)N[C@H]1C(=O)N[C@@H](CC(N)=O)C(=O)N[C@H]2C(=O)N[C@H]3C(=O)N[C@H](C(=O)N[C@H](C(=O)O)c4cc(O)cc(O)c4-c4cc3ccc4O)[C@H](O)c3ccc(c(Cl)c3)Oc3cc2cc(c3O[C@@H]2O[C@H](CO)[C@@H](O)[C@H](O)[C@H]2O[C@H]2C[C@](C)(N)[C@H](O)[C@H](C)O2)Oc2ccc(cc2Cl)[C@H]1O [vancomycin, reference compound]
MIC (S. aureus ATCC43300 [3]): 1 µg/mL (≈ 0.69 µM)
Time to kill all the strains (S. aureus ATCC43300 [4]): 6 h
